Data on 23 compounds can be found in patent publication US9556179B2 (BRISTOL-MYERS SQUIBB COMPANY, priority 2012, dated 2017).

In assay [1] the target is CK1δ (Homo sapiens (Human), UniProt P48730). As to the kind of experiment: CK1δ kinase assay (Caliper LABCHIP electrophoretic separation of fluoresceinated peptide substrate and product). The format is biochemical. As to conditions: 200 pM enzyme, 50 μM ATP, 22 hours at room temperature. The method in brief: (§1)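 Reactions ran 22 hours at room temperature and were stopped with EDTA. Phosphorylated product and unphosphorylated substrate were then separated electrophoretically. Compounds were tested at eleven concentrations, and IC50 values came from non-linear regression.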

In assay [2] the target is CK1ε (Homo sapiens (Human), UniProt P49674). The experiment in a line: CK1ε kinase assay (Caliper LABCHIP electrophoretic separation of fluoresceinated peptide substrate and product). The format is biochemical. As to conditions: 200 pM enzyme, 50 μM ATP, 22 hours at room temperature. The method in brief:
as §1

Sequence of CK1ε (P49674 whole entry): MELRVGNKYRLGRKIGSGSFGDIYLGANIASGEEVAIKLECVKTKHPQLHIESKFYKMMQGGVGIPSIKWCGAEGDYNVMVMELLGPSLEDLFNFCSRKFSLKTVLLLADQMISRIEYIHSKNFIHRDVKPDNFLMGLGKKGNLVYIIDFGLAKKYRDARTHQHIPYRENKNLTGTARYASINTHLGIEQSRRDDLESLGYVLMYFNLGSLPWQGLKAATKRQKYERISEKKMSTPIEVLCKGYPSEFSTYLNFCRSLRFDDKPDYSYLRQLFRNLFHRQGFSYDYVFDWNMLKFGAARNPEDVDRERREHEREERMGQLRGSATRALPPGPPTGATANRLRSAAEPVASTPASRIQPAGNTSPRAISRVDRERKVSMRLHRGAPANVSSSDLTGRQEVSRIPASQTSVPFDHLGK
Sequence of CK1δ (P48730 whole entry): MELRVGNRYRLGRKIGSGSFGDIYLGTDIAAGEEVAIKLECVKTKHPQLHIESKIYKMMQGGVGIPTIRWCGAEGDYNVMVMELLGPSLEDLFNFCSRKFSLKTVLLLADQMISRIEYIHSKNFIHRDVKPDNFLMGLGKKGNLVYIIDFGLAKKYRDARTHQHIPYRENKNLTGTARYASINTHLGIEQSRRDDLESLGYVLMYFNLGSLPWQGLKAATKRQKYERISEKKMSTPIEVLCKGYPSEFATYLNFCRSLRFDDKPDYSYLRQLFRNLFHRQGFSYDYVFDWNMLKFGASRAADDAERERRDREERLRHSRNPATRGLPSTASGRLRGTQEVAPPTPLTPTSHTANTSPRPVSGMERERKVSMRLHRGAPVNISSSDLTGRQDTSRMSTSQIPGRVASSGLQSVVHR

Turning to `O=C(Nc1cn2nc(-c3c(-c4ccc(F)cc4)ncn3C3CCN(C(=O)c4ccon4)CC3)ccc2n1)c1cncs1` [Compound 116, N-(6-(4-(4-fluorophenyl)-1-(1-(isoxazole-3-carbonyl)piperidin-4-yl)-1H-imidazol-5-yl)imidazo[1,2-b]pyridazin-2-yl)thiazole-5-carboxamide], the IC50 is 0.173 nM in assay [1] and 0.372 nM in assay [2].
Taken in the same sequence, the figures for `O=C(Nc1cn2nc(-c3c(-c4ccc(F)cc4)ncn3C3CCN(C(=O)CC(F)(F)F)CC3)ccc2n1)c1cncs1` [Compound 117, N-(6-(4-(4-fluorophenyl)-1-(1-(3,3,3-trifluoropropanoyl)piperidin-4-yl)-1H-imidazol-5-yl)imidazo[1,2-b]pyridazin-2-yl)thiazole-5-carboxamide] were 0.175 nM and 0.424 nM.
The matching figures for `O=C(Nc1cn2nc(-c3c(-c4ccc(F)cc4)ncn3C3CCN(C[C@H](O)C(F)(F)F)CC3)ccc2n1)c1cncs1` [Compound 118, (S)—N-(6-(4-(4-fluorophenyl)-1-(1-(3,3,3-trifluoro-2-hydroxypropyl)piperidin-4-yl)-1H-imidazol-5-yl)imidazo[1,2-b]pyridazin-2-yl)thiazole-5-carboxamide]: 0.194 nM and 0.182 nM.
With `O=C(Nc1cn2nc(-c3c(-c4ccc(F)cc4)nc(C4CC4)n3C3CCNCC3)ccc2n1)c1ccnc(F)c1` [Compound 119, N-(6-(2-cyclopropyl-4-(4-fluorophenyl)-1-(piperidin-4-yl)-1H-imidazol-5-yl)imidazo[1,2-b]pyridazin-2-yl)-2-fluoroisonicotinamide], the IC50 in assay [1] came out at 1.21 nM; in assay [2], 8.27 nM.
On to `COCCN1CCC(n2c(C3CC3)nc(-c3ccc(F)cc3)c2-c2ccc3nc(NC(=O)c4ccnc(F)c4)cn3n2)CC1` [Compound 120, N-(6-(2-cyclopropyl-4-(4-fluorophenyl)-1-(1-(2-methoxyethyl)piperidin-4-yl)-1H-imidazol-5-yl)imidazo[1,2-b]pyridazin-2-yl)-2-fluoroisonicotinamide], for which the results for the IC50 in assay [1] and in assay [2] were 1.52 nM and 16.7 nM, respectively.
Taken in the same sequence, the figures for `NC(=O)CN1CCC(n2c(C3CC3)nc(-c3ccc(F)cc3)c2-c2ccc3nc(NC(=O)c4ccnc(F)c4)cn3n2)CC1` [Compound 121, N-(6-(1-(1-(2-amino-2-oxoethyl)piperidin-4-yl)-2-cyclopropyl-4-(4-fluorophenyl)-1H-imidazol-5-yl)imidazo [1,2-b]pyridazin-2-yl)-2-fluoroisonicotinamide] were 0.489 nM and 10.8 nM.
The matching figures for `N#CCCN1CCC(n2c(C3CC3)nc(-c3ccc(F)cc3)c2-c2ccc3nc(NC(=O)c4ccnc(F)c4)cn3n2)CC1` [Compound 122, N-(6-(1-(1-(2-cyanoethyl)piperidin-4-yl)-2-cyclopropyl-4-(4-fluorophenyl)-1H-imidazol-5-yl)imidazo[1,2-b]pyridazin-2-yl)-2-fluoroisonicotinamide]: 0.446 nM and 2.86 nM.
Taken in the same sequence, the figures for `O=C(Nc1cn2nc(-c3c(-c4ccc(F)cc4)nc(C4CC4)n3C3CCN(c4ccncc4)CC3)ccc2n1)c1ccnc(F)c1` [Compound 123, N-(6-(2-cyclopropyl-4-(4-fluorophenyl)-1-(1-(pyridin-4-yl)piperidin-4-yl)-1H-imidazol-5-yl)imidazo[1,2-b]pyridazin-2-yl)-2-fluoroisonicotinamide] were 2.86 nM and 16.7 nM.
Take `O=C(Nc1cn2nc(-c3c(-c4ccc(F)cc4)nc(C4CC4)n3C3CCN(S(=O)(=O)C4CC4)CC3)ccc2n1)c1ccnc(F)c1` [Compound 124, N-(6-(2-cyclopropyl-1-(1-(cyclopropylsulfonyl)piperidin-4-yl)-4-(4-fluorophenyl)-1H-imidazol-5-yl)imidazo[1,2-b]pyridazin-2-yl)-2-fluoroisonicotinamide]: the IC50 in assay [1] is 3.72 nM; in assay [2] it was 27.1 nM.
The matching figures for `O=C(Nc1cn2nc(-c3c(-c4ccc(F)cc4)nc(C4CC4)n3C3CCN(C(=O)Nc4ccncc4)CC3)ccc2n1)c1ccnc(F)c1` [Compound 125, N-(6-(2-cyclopropyl-4-(4-fluorophenyl)-1-(1-(pyridin-4-ylcarbamoyl)piperidin-4-yl)-1H-imidazol-5-yl)imidazo[1,2-b]pyridazin-2-yl)-2-fluoroisonicotinamide]: 0.95 nM and 6.03 nM.
As to `O=C(Nc1cn2nc(-c3c(-c4ccc(F)cc4)nc(C4CC4)n3C3CCN(C(=O)c4ccon4)CC3)ccc2n1)c1ccnc(F)c1` [Compound 126, N-(6-(2-cyclopropyl-4-(4-fluorophenyl)-1-(1-(isoxazole-3-carbonyl)piperidin-4-yl)-1H-imidazol-5-yl)imidazo[1,2-b]pyridazin-2-yl)-2-fluoroisonicotinamide], the IC50 is 1.66 nM in assay [1] and 9.02 nM in assay [2].
The matching figures for `O=C(Nc1cn2nc(-c3c(-c4ccc(F)cc4)nc(C4CC4)n3C3CCN(C(=O)CC(F)(F)F)CC3)ccc2n1)c1ccnc(F)c1` [Compound 127, N-(6-(2-cyclopropyl-4-(4-fluorophenyl)-1-(1-(3,3,3-trifluoropropanoyl)piperidin-4-yl)-1H-imidazol-5-yl)imidazo [1,2-b]pyridazin-2-yl)-2-fluoroisonicotinamide]: 1.75 nM and 10.1 nM.
The matching figures for `O=C(Nc1cn2nc(-c3c(-c4ccc(F)cc4)nc(C4CC4)n3C3CCN(Cc4ccon4)CC3)ccc2n1)c1ccnc(F)c1` [Compound 128, N-(6-(2-cyclopropyl-4-(4-fluorophenyl)-1-(1-(isoxazol-3-ylmethyl)piperidin-4-yl)-1H-imidazol-5-yl)imidazo[1,2-b]pyridazin-2-yl)-2-fluoroisonicotinamide]: 0.301 nM and 6.41 nM.
Take `Cn1nccc1CN1CCC(n2c(C3CC3)nc(-c3ccc(F)cc3)c2-c2ccc3nc(NC(=O)c4ccnc(F)c4)cn3n2)CC1` [Compound 129, N-(6-(2-cyclopropyl-4-(4-fluorophenyl)-1-(1-((1-methyl-1H-pyrazol-5-yl)methyl)piperidin-4-yl)-1H-imidazol-5-yl)imidazo[1,2-b]pyridazin-2-yl)-2-fluoroisonicotinamide]: the IC50 in assay [1] was found to be 2.28 nM; in assay [2] it was 19.1 nM.
The matching figures for `O=C(Nc1cn2nc(-c3c(-c4ccc(F)cc4)nc(C4CC4)n3C3CCN(CCC(F)(F)F)CC3)ccc2n1)c1ccnc(F)c1` [Compound 130, N-(6-(2-cyclopropyl-4-(4-fluorophenyl)-1-(1-(3,3,3-trifluoropropyl)piperidin-4-yl)-1H-imidazol-5-yl)imidazo [1,2-b]pyridazin-2-yl)-2-fluoroisonicotinamide]: 3.32 nM and 53.3 nM.
Consider `O=C(Nc1cn2nc(-c3c(-c4ccc(F)cc4)nc(C4CC4)n3C3CCN(Cc4ccncc4)CC3)ccc2n1)c1ccnc(F)c1` [Compound 131, N-(6-(2-cyclopropyl-4-(4-fluorophenyl)-1-(1-(pyridin-4-ylmethyl)piperidin-4-yl)-1H-imidazol-5-yl)imidazo [1,2-b]pyridazin-2-yl)-2-fluoroisonicotinamide], for which the IC50 was found to be 1.97 nM in assay [1] and 20.7 nM in assay [2].
The matching figures for `O=C(Nc1cn2nc(-c3c(-c4ccc(F)cc4)nc(C4CC4)n3C3CCN(C4COC4)CC3)ccc2n1)c1ccnc(F)c1` [Compound 132, N-(6-(2-cyclopropyl-4-(4-fluorophenyl)-1-(1-(oxetan-3-yl)piperidin-4-yl)-1H-imidazol-5-yl)imidazo[1,2-b]pyridazin-2-yl)-2-fluoroisonicotinamide]: 1.7 nM and 14.2 nM.
`O=C(Nc1cn2nc(-c3c(-c4ccc(F)cc4)nc(C4CC4)n3C3CCN(Cc4ccno4)CC3)ccc2n1)c1ccnc(F)c1` [Compound 133, N-(6-(2-cyclopropyl-4-(4-fluorophenyl)-1-(1-(isoxazol-5-ylmethyl)piperidin-4-yl)-1H-imidazol-5-yl)imidazo [1,2-b]pyridazin-2-yl)-2-fluoroisonicotinamide]: the IC50 was determined as 0.907 nM in assay [1] and 13.1 nM in assay [2].
The matching figures for `O=C(Nc1cn2nc(-c3c(-c4ccc(F)cc4)nc(C4CC4)n3C3CCN(CCN4CCOCC4)CC3)ccc2n1)c1ccnc(F)c1` [Compound 134]: 0.542 nM and 7.83 nM.
The matching figures for `O=C(Nc1cn2nc(-c3c(-c4ccc(F)cc4)nc(C4CC4)n3C3CCNCC3)ccc2n1)c1cccc(-c2cccnc2)c1` [Compound 135, N-(6-(2-cyclopropyl-4-(4-fluorophenyl)-1-(piperidin-4-yl)-1H-imidazol-5-yl)imidazo[1,2-b]pyridazin-2-yl)-3-(pyridin-3-yl)benzamide]: 0.745 nM and 2.6 nM.
As for `N#CCCN1CCC(n2c(C3CC3)nc(-c3ccc(F)cc3)c2-c2ccc3nc(NC(=O)c4cccc(-c5cccnc5)c4)cn3n2)CC1` [Compound 136, N-(6-(1-(1-(2-cyanoethyl)piperidin-4-yl)-2-cyclopropyl-4-(4-fluorophenyl)-1H-imidazol-5-yl)imidazo[1,2-b]pyridazin-2-yl)-3-(pyridin-3-yl)benzamide], the IC50 came out at 0.514 nM in assay [1] and 8.9 nM in assay [2].
Take `NCC(=O)N1CCC(n2c(C3CC3)nc(-c3ccc(F)cc3)c2-c2ccc3nc(NC(=O)c4cccc(-c5cccnc5)c4)cn3n2)CC1` [Compound 137, N-(6-(1-(1-(2-aminoacetyl)piperidin-4-yl)-2-cyclopropyl-4-(4-fluorophenyl)-1H-imidazol-5-yl)imidazo[1,2-b]pyridazin-2-yl)-3-(pyridin-3-yl)benzamide]: the IC50 worked out at 0.203 nM in assay [1] and 5.78 nM in assay [2].
The matching figures for `O=C(Nc1cn2nc(-c3c(-c4ccc(F)cc4)nc(C4CC4)n3C3CCN(Cc4ccon4)CC3)ccc2n1)c1cccc(-c2cccnc2)c1` [Compound 138, N-(6-(2-cyclopropyl-4-(4-fluorophenyl)-1-(1-(isoxazol-3-ylmethyl)piperidin-4-yl)-1H-imidazol-5-yl)imidazo[1,2-b]pyridazin-2-yl)-3-(pyridin-3-yl)benzamide]: 1.56 nM and 11 nM.
